Measured values taken from PubChem BioAssay (NCI).
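96-well plates; 48 h exposure; 5 concentrations. Endpoints by linear interpolation between flanking doses. Not reached: highest tested concentration assigned. At the GI50, growth is halved. At the TGI there is no net growth.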

Tests used:
Assay in all cases: NCI anticancer screen, dose series, 48 h
IGROV1 ovarian = test system: IGROV1 ovarian
EKVX NSCLC = test system: EKVX NSCLC
UACC-257 melanoma = test system: UACC-257 melanoma
A498 renal = test system: A498 renal
SF-295 CNS = test system: SF-295 CNS
M14 melanoma = test system: M14 melanoma
K-562 leukemia = test system: K-562 leukemia
OVCAR-3 ovarian = test system: OVCAR-3 ovarian
SF-268 CNS = test system: SF-268 CNS
UO-31 renal = test system: UO-31 renal
SR leukemia = test system: SR leukemia
SK-OV-3 ovarian = test system: SK-OV-3 ovarian
UACC-62 melanoma = test system: UACC-62 melanoma
HL-60(TB) leukemia = test system: HL-60(TB) leukemia
MDA-MB-231 breast = test system: MDA-MB-231 breast
SK-MEL-5 melanoma = test system: SK-MEL-5 melanoma
TK-10 renal = test system: TK-10 renal
DU-145 prostate = test system: DU-145 prostate
SNB-75 CNS = test system: SNB-75 CNS
NCI-H23 lung = test system: NCI-H23 lung
HT29 colon = test system: HT29 colon
SW-620 colon = test system: SW-620 colon
NCI-H226 lung = test system: NCI-H226 lung
786-0 renal = test system: 786-0 renal
ACHN renal = test system: ACHN renal
U251 CNS = test system: U251 CNS
CAKI-1 renal = test system: CAKI-1 renal
CCRF-CEM leukemia = test system: CCRF-CEM leukemia
KM12 colon = test system: KM12 colon
RPMI-8226 leukemia = test system: RPMI-8226 leukemia
OVCAR-8 ovarian = test system: OVCAR-8 ovarian
OVCAR-4 ovarian = test system: OVCAR-4 ovarian
NCI/ADR-RES ovarian = test system: NCI/ADR-RES ovarian
MDA-MB-435 = test system: MDA-MB-435
A549 NSCLC = test system: A549 NSCLC
MCF7 breast = test system: MCF7 breast
HCT-15 colon = test system: HCT-15 colon
SF-539 CNS = test system: SF-539 CNS
SK-MEL-28 melanoma = test system: SK-MEL-28 melanoma
BT-549 breast = test system: BT-549 breast
NCI-H522 lung = test system: NCI-H522 lung
PC-3 prostate = test system: PC-3 prostate
HOP-92 NSCLC = test system: HOP-92 NSCLC
OVCAR-5 ovarian = test system: OVCAR-5 ovarian
HCC-2998 colon = test system: HCC-2998 colon
RXF 393 renal = test system: RXF 393 renal
MOLT-4 leukemia = test system: MOLT-4 leukemia
HS 578T breast = test system: HS 578T breast
T-47D breast = test system: T-47D breast
SN12C renal = test system: SN12C renal
HCT-116 colon = test system: HCT-116 colon
NCI-H460 lung = test system: NCI-H460 lung
HOP-62 NSCLC = test system: HOP-62 NSCLC
SK-MEL-2 melanoma = test system: SK-MEL-2 melanoma
MALME-3M melanoma = test system: MALME-3M melanoma
COLO 205 colon = test system: COLO 205 colon
SNB-19 CNS = test system: SNB-19 CNS
MDA-MB-468 breast = test system: MDA-MB-468 breast

Compound: Cn1cc(-c2cc(N)n3nc(-c4cn(C)c5ccccc45)cc3n2)c2cc(Cl)ccc21
- GI50 (IGROV1 ovarian): 2.45 µM
- TGI (IGROV1 ovarian): 8.26 µM
- GI50 (EKVX NSCLC): 12.6 µM
- TGI (EKVX NSCLC): 37.4 µM
- GI50 (UACC-257 melanoma): 2.44 µM
- TGI (UACC-257 melanoma): 7.17 µM
- GI50 (A498 renal): 14.3 µM
- TGI (A498 renal): 32.3 µM
- GI50 (SF-295 CNS): 1.92 µM
- TGI (SF-295 CNS): 4.26 µM
- GI50 (M14 melanoma): 1.95 µM
- TGI (M14 melanoma): 4.71 µM
- GI50 (K-562 leukemia): 2.97 µM
- TGI (K-562 leukemia): 10.6 µM
- GI50 (OVCAR-3 ovarian): 11.3 µM
- TGI (OVCAR-3 ovarian): 28.1 µM
- GI50 (SF-268 CNS): 8.07 µM
- TGI (SF-268 CNS): 32.7 µM
- GI50 (UO-31 renal): 1.63 µM
- TGI (UO-31 renal): 3.07 µM
- GI50 (SR leukemia): 2.03 µM
- TGI (SR leukemia): 6.77 µM
- GI50 (SK-OV-3 ovarian): 18 µM
- TGI (SK-OV-3 ovarian): 48.2 µM
- GI50 (UACC-62 melanoma): 1.64 µM
- TGI (UACC-62 melanoma): 3.16 µM
- GI50 (HL-60(TB) leukemia): 2.35 µM
- TGI (HL-60(TB) leukemia): 5.81 µM
- GI50 (MDA-MB-231 breast): 1.82 µM
- TGI (MDA-MB-231 breast): 3.3 µM
- GI50 (SK-MEL-5 melanoma): 3.5 µM
- TGI (SK-MEL-5 melanoma): 13 µM
- GI50 (TK-10 renal): 11.7 µM
- TGI (TK-10 renal): 26.6 µM
- GI50 (DU-145 prostate): 6.37 µM
- TGI (DU-145 prostate): > 100 µM
- GI50 (SNB-75 CNS): 10.6 µM
- TGI (SNB-75 CNS): 26.6 µM
- GI50 (NCI-H23 lung): 3.75 µM
- TGI (NCI-H23 lung): 20.5 µM
- GI50 (HT29 colon): 1.79 µM
- TGI (HT29 colon): 3.51 µM
- GI50 (SW-620 colon): 2.17 µM
- TGI (SW-620 colon): 4.8 µM
- GI50 (NCI-H226 lung): > 100 µM
- TGI (NCI-H226 lung): > 100 µM
- GI50 (786-0 renal): 1.74 µM
- TGI (786-0 renal): 3.45 µM
- GI50 (ACHN renal): 2.05 µM
- TGI (ACHN renal): 4.46 µM
- GI50 (U251 CNS): 1.86 µM
- TGI (U251 CNS): 3.73 µM
- GI50 (CAKI-1 renal): 2 µM
- TGI (CAKI-1 renal): 5.54 µM
- GI50 (CCRF-CEM leukemia): 3.22 µM
- TGI (CCRF-CEM leukemia): 15.3 µM
- GI50 (KM12 colon): 2.15 µM
- TGI (KM12 colon): 4.83 µM
- GI50 (RPMI-8226 leukemia): 3.27 µM
- TGI (RPMI-8226 leukemia): 14.9 µM
- GI50 (OVCAR-8 ovarian): 2.09 µM
- TGI (OVCAR-8 ovarian): 4.59 µM
- GI50 (OVCAR-4 ovarian): 3.28 µM
- TGI (OVCAR-4 ovarian): 11.3 µM
- GI50 (NCI/ADR-RES ovarian): 3.03 µM
- TGI (NCI/ADR-RES ovarian): 9.38 µM
- GI50 (MDA-MB-435): 2.06 µM
- TGI (MDA-MB-435): 4.26 µM
- GI50 (A549 NSCLC): 2.68 µM
- TGI (A549 NSCLC): 10.7 µM
- GI50 (MCF7 breast): 1.77 µM
- TGI (MCF7 breast): 4.13 µM
- GI50 (HCT-15 colon): 1.84 µM
- TGI (HCT-15 colon): 3.95 µM
- GI50 (SF-539 CNS): 1.85 µM
- TGI (SF-539 CNS): 3.83 µM
- GI50 (SK-MEL-28 melanoma): 1.69 µM
- TGI (SK-MEL-28 melanoma): 3.08 µM
- GI50 (BT-549 breast): 14.6 µM
- TGI (BT-549 breast): 33.4 µM
- GI50 (NCI-H522 lung): 1.6 µM
- TGI (NCI-H522 lung): 3.48 µM
- GI50 (PC-3 prostate): 1.93 µM
- TGI (PC-3 prostate): 4.91 µM
- GI50 (HOP-92 NSCLC): 2.23 µM
- TGI (HOP-92 NSCLC): 6.51 µM
- GI50 (OVCAR-5 ovarian): 5.16 µM
- TGI (OVCAR-5 ovarian): 25.5 µM
- GI50 (HCC-2998 colon): 1.78 µM
- TGI (HCC-2998 colon): 3.34 µM
- GI50 (RXF 393 renal): 1.98 µM
- TGI (RXF 393 renal): 4.01 µM
- GI50 (MOLT-4 leukemia): 2.58 µM
- TGI (MOLT-4 leukemia): 9.61 µM
- GI50 (HS 578T breast): 3.3 µM
- TGI (HS 578T breast): 19.4 µM
- GI50 (T-47D breast): 10.1 µM
- TGI (T-47D breast): 33.3 µM
- GI50 (SN12C renal): 1.77 µM
- TGI (SN12C renal): 3.33 µM
- GI50 (HCT-116 colon): 1.87 µM
- TGI (HCT-116 colon): 3.87 µM
- GI50 (NCI-H460 lung): 2.2 µM
- TGI (NCI-H460 lung): 4.96 µM
- GI50 (HOP-62 NSCLC): 5.29 µM
- TGI (HOP-62 NSCLC): 26.4 µM
- GI50 (SK-MEL-2 melanoma): 1.84 µM
- TGI (SK-MEL-2 melanoma): 4.1 µM
- GI50 (MALME-3M melanoma): 1.71 µM
- TGI (MALME-3M melanoma): 3.22 µM
- GI50 (COLO 205 colon): 1.97 µM
- TGI (COLO 205 colon): 3.95 µM
- GI50 (SNB-19 CNS): 3.45 µM
- TGI (SNB-19 CNS): 23.8 µM
- GI50 (MDA-MB-468 breast): 2.2 µM
- TGI (MDA-MB-468 breast): 5.36 µM
